Read-outs that look alike come from different tables or passages of the source.
Columns and labels:
[1] = test system: human cervical carcinoma (HeLa) cells; experiment: (Photo-)cytotoxicity on 2D cell monolayers, resazurin assay, HeLa; assay type: cell-based; conditions: for PI (480 nm): dark vs 480 nm (10 min, 3.1 J/cm^2); for PI (540 nm): dark vs 540 nm (40 min, 9.5 J/cm^2)
From the text: Before an experiment, the cells were passaged three times.

[2] = Emission measurement in CH3CN; assay type: physicochemical; conditions: room temperature, excitation at 355 nm
Method: The absorption of the samples was measured with a SpectraMax M2 Spectrometer (Molecular Devices). The emission was measured by irradiation of the sample in fluorescence quartz cuvettes (width 1 cm) using a NT342B Nd-YAG pumped optical parametric oscillator (Ekspla) at 355 nm. Luminescence was focused and collected at right angle to the excitation pathway and directed to a Princeton Instruments Acton SP-2300i monochromator. As a detector, a XPI-Max 4 CCD camera (Princeton Instruments) has been used.

[3] = Singlet oxygen measurement, indirect evaluation (RNO absorbance); assay type: physicochemical; conditions: indirect
Method: For the measurement in CH3CN: The samples were prepared in an air-saturated CH3CN solution containing the complex with an absorbance of 0.2 at the irradiation wavelength, N,N-dimethyl-4-nitrosoaniline aniline (RNO, 24 μM) and imidazole (12 mM). For the measurement in PBS buffer: The samples were prepared in an air-saturated PBS solution containing the complex with an absorbance of 0.1 at the irradiation wavelength, N,N-dimethyl-4-nitrosoaniline aniline (RNO, 20 μM) and histidine (10 mM). The samples were irradiated on 96 well plates with an Atlas Photonics LUMOS BIO irradiator for different times. The absorbance of the samples was measured during these time intervals with a SpectraMax M2 Microplate Reader (Molecular Devices). The difference in absorbance (A0−A) at 420 nm for the CH3CN solution or at 440 nm a PBS buffer solution was calculated and plotted against the irradiation times. From the plot the slope of the linear regression was calculated as well as the absorbance correction factor determined. The singlet oxygen quantum yields were calculated using the same formulas as used for the direct evaluation.

[4] = test system: mouse colon carcinoma (CT-26) cells
[5] = Singlet oxygen measurement, direct evaluation (1O2 luminescence at 1270 nm); assay type: physicochemical
Method: The samples were prepared in an air saturated CH3CN or D2O solution with an absorbance of 0.2 at 450 nm. This solution was irradiated in fluorescence quartz cuvettes (width 1 cm) using a mounted M450LP1 LED (Thorlabs) whose irradiation, centered at 450 nm, has been focused with aspheric condenser lenses. The intensity of the irradiation has been varied using a T-Cube LED Driver (Thorlabs) and measured with an optical power and energy meter. The emission signal was focused and collected at right angle to the excitation pathway and directed to a Princeton Instruments Acton SP-2300i monochromator. A longpass glass filter was placed in front of the monochromator entrance slit to cut off light at wavelengths shorter than 850 nm. As a detector an EO-817L IR-sensitive liquid nitrogen cooled germanium diode detector (North Coast Scientific Corp.) has been used. The singlet oxygen luminesce at 1270 nm was measured by recording spectra from 1100 to 1400 nm. For the data analysis, the singlet oxygen luminescence peaks at different irradiation intensities were integrated. The resulting areas were plotted against the percentage of the irradiation intensity and the slope of the linear regression calculated. The absorbance of the sample was corrected with an absorbance correction factor. As reference for the measurement Rose Bengal (Φ=76%) (Kochevar, I. E. and Redmond, R. W., 2000) was used and the singlet oxygen quantum yields were calculated using the following formula:
Φsample=Φreference*(Ssample/Sreference)*(Ireference/Isample)
Φ=singlet oxygen quantum yield, S=slope of the linear regression of the plot of the areas of the singlet oxygen luminescence peaks against the irradiation intensity, I=absorbance correction factor, […] of the irradiation source, A=absorbance of the sample at irradiation wavelength.

[6] = Luminescence quantum yield measurements; assay type: physicochemical; design: key: fraction, relative to [Ru(bipy)3]Cl2 reference in CH3CN (Φem=5.9%); conditions: CH3CN, room temperature, excitation at 355 nm
Method: For the determination of the luminescence quantum yield, the samples were prepared in an CH3CN solution with an absorbance of 0.1 at 355 nm. This solution was irradiated in fluorescence quartz cuvettes (width 1 cm) using a NT342B Nd-YAG pumped optical parametric oscillator (Ekspla) at 355 nm. The emission signal was focused and collected at right angle to the excitation pathway and directed to a Princeton Instruments Acton SP-2300i monochromator. As a detector a XPI-Max 4 CCD camera (Princeton Instruments) has been used. The luminescence quantum yields were determined by comparison with the reference [Ru(bipy)3]Cl2 in CH3CN (Φem=5.9%) (Nakamaru, K., 1982) applying the following formula:
Φem, sample=Φem, reference*(Freference/Fsample)*(Isample/Ireference)*(nsample/nreference)^2
Φem=luminescence quantum yield, F=fraction of light absorbed, I=integrated emission intensities, n=refractive index, A=absorbance of the sample at irradiation wavelength.

[7] = test system: mouse colon carcinoma (CT-26) cells; experiment: (Photo-)cytotoxicity on 2D cell monolayers, resazurin assay, CT-26; conditions: for PI (480 nm): CT-26, dark vs 480 nm (10 min, 3.1 J/cm^2); for PI (540 nm): CT-26, dark vs 540 nm (40 min, 9.5 J/cm^2); for IC50: compounds 1-3 as chloride salts
[8] = Luminescence lifetime measurements; assay type: physicochemical; conditions: excitation at 355 nm; for τ/ns air (Lifetime): air saturated CH3CN; for τ/ns degassed (Lifetime): degassed CH3CN
Method: For the determination of the lifetimes, the samples were prepared in an air saturated and in a degassed CH3CN solution with an absorbance of 0.2 at 355 nm. This solution was irradiated in fluorescence quartz cuvettes (width 1 cm) using a NT342B Nd-YAG pumped optical parametric oscillator (Ekspla) at 355 nm. The emission signal was focused and collected at right angle to the excitation pathway and directed to a Princeton Instruments Acton SP-2300i monochromator. As a detector a R928 photomultiplier tube (Hamamatsu) has been used.

[9] = dark, 4 h incubation, compounds 1-3 as chloride salts, read-out: IC50 dark
[10] = read-out: IC50 480 nm (10 min, 3.1 J/cm^2), irradiation 480 nm (10 min, 3.1 J/cm^2), compounds 1-3 as chloride salts
[11] = read-out: IC50 540 nm (40 min, 9.5 J/cm^2), irradiation 540 nm (40 min, 9.5 J/cm^2), compounds 1-3 as chloride salts
[12] = read-out: IC50 540 nm (40 min, 9.5 J/cm^2), CT-26, irradiation 540 nm (40 min, 9.5 J/cm^2)
[13] = read-out: IC50 dark, CT-26, dark, 4 h incubation

## CN(C)c1ccc(/C=C/c2ccnc(-c3cc(/C=C/c4ccc(N(C)C)cc4)ccn3)c2)cc1.CN(C)c1ccc(/C=C/c2ccnc(-c3cc(/C=C/c4ccc(N(C)C)cc4)ccn3)c2)cc1.F[P-](F)(F)(F)(F)F.F[P-](F)(F)(F)(F)F.[Ru+2].c1ccc(-c2ccccn2)nc1 [Compound 4, [Ru(bipy)((E,E′)-4,4′-Bis[p-(N,N-dimethylamino)styryl]-2,2′-bipyridine)2][PF6]2]
[1]
  PI (480 nm): >11.8
  PI (540 nm): >9.4
[1]; [9]
  IC50: > 100 µM
[1]; [10]
  IC50: 8.5 ± 1.2 µM
[1]; [11]
  IC50: 10.6 ± 2.2 µM
[2]
  λem/nm (Emission maximum): 703 nm
[3]
  Singlet oxygen quantum yield, indirect 450 nm CH3CN: 40%
  Singlet oxygen quantum yield, indirect 450 nm PBS: 2%
  Singlet oxygen quantum yield, indirect 540 nm CH3CN: 37%
  Singlet oxygen quantum yield, indirect 540 nm PBS: 3%
[4]
  IC50: 7.3 ± 1.4 µM
[5]
  Singlet oxygen quantum yield, direct 450 nm CH3CN: 34%
[6]
  ϕem (Luminescence Quantum Yield): 0.004
[7]
  PI (480 nm): >13.7
  PI (540 nm): >10.4
[7]; [12]
  IC50: 9.6 ± 1.9 µM
[7]; [13]
  IC50: > 100 µM
[8]
  τ/ns air (Lifetime): 69 ns
  τ/ns degassed (Lifetime): 417 ns

## COc1ccc(/C=C/c2ccnc(-c3cc(/C=C/c4ccc(OC)cc4)ccn3)c2)cc1.COc1ccc(/C=C/c2ccnc(-c3cc(/C=C/c4ccc(OC)cc4)ccn3)c2)cc1.F[P-](F)(F)(F)(F)F.F[P-](F)(F)(F)(F)F.[Ru+2].c1ccc(-c2ccccn2)nc1 [Compound 5, [Ru(bipy)((E,E′)-4,4′-Bis[p-methoxystyryl]-2,2′-bipyridine)2][PF6]2]
[1]
  PI (480 nm): >16.7
  PI (540 nm): >12.7
[1]; [9]
  IC50: > 100 µM
[1]; [10]
  IC50: 6.4 ± 1.7 µM
[1]; [11]
  IC50: 7.9 ± 1.3 µM
[2]
  λem/nm (Emission maximum): 674 nm
[3]
  Singlet oxygen quantum yield, indirect 450 nm CH3CN: 51%
  Singlet oxygen quantum yield, indirect 450 nm PBS: 8%
  Singlet oxygen quantum yield, indirect 540 nm CH3CN: 46%
  Singlet oxygen quantum yield, indirect 540 nm PBS: 6%
[4]
  IC50: 5.1 ± 1.1 µM
[5]
  Singlet oxygen quantum yield, direct 450 nm CH3CN: 54%
[6]
  ϕem (Luminescence Quantum Yield): 0.014
[7]
  PI (480 nm): >19.6
  PI (540 nm): >16.1
[7]; [12]
  IC50: 6.2 ± 1 µM
[7]; [13]
  IC50: > 100 µM
[8]
  τ/ns air (Lifetime): 36 ns
  τ/ns degassed (Lifetime): 231 ns

## CN(C)c1ccc(/C=C/c2ccnc(-c3cc(/C=C/c4ccc(N(C)C)cc4)ccn3)c2)cc1.F[P-](F)(F)(F)(F)F.F[P-](F)(F)(F)(F)F.[Ru+2].c1ccc(-c2ccccn2)nc1.c1ccc(-c2ccccn2)nc1 [Compound 6, [Ru(bipy)2((E,E′)-4,4′-Bis[p-(N,N-dimethylamino)styryl]-2,2′-bipyridine)][PF6]2]
[1]
  PI (480 nm): >18.9
  PI (540 nm): >17.2
[1]; [9]
  IC50: > 100 µM
[1]; [10]
  IC50: 5.3 ± 0.6 µM
[1]; [11]
  IC50: 5.8 ± 0.9 µM
[2]
  λem/nm (Emission maximum): 697 nm
[3]
  Singlet oxygen quantum yield, indirect 450 nm CH3CN: 53%
  Singlet oxygen quantum yield, indirect 450 nm PBS: 2%
  Singlet oxygen quantum yield, indirect 540 nm CH3CN: 38%
  Singlet oxygen quantum yield, indirect 540 nm PBS: 2%
[4]
  IC50: 2.4 ± 0.5 µM
[5]
  Singlet oxygen quantum yield, direct 450 nm CH3CN: 46%
[6]
  ϕem (Luminescence Quantum Yield): 0.005
[7]
  PI (480 nm): >41.7
  PI (540 nm): >32.3
[7]; [12]
  IC50: 3.1 ± 0.3 µM
[7]; [13]
  IC50: > 100 µM
[8]
  τ/ns air (Lifetime): 54 ns
  τ/ns degassed (Lifetime): 405 ns

## CN(C)c1ccc(/C=C/c2ccnc(-c3cc(/C=C/c4ccc(N(C)C)cc4)ccn3)c2)cc1.F[P-](F)(F)(F)(F)F.F[P-](F)(F)(F)(F)F.[Ru+2].c1cnc2c(c1)ccc1cccnc12.c1cnc2c(c1)ccc1cccnc12 [Compound 8, [Ru(phen)2((E,E′)-4,4′-Bis[p-(N,N-dimethylamino)styryl]-2,2′-bipyridine)][PF6]2]
[1]
  PI (480 nm): >7.9
  PI (540 nm): >8.8
[1]; [9]
  IC50: > 100 µM
[1]; [10]
  IC50: 12.6 ± 1.3 µM
[1]; [11]
  IC50: 11.4 ± 1.5 µM
[2]
  λem/nm (Emission maximum): 698 nm
[3]
  Singlet oxygen quantum yield, indirect 450 nm CH3CN: 62%
  Singlet oxygen quantum yield, indirect 450 nm PBS: 3%
  Singlet oxygen quantum yield, indirect 540 nm CH3CN: 57%
  Singlet oxygen quantum yield, indirect 540 nm PBS: 2%
[4]
  IC50: 8.2 ± 1.1 µM
[5]
  Singlet oxygen quantum yield, direct 450 nm CH3CN: 59%
[6]
  ϕem (Luminescence Quantum Yield): 0.004
[7]
  PI (480 nm): >12.2
  PI (540 nm): >12.8
[7]; [12]
  IC50: 7.8 ± 0.9 µM
[7]; [13]
  IC50: > 100 µM
[8]
  τ/ns air (Lifetime): 136 ns
  τ/ns degassed (Lifetime): 334 ns

## COc1ccc(/C=C/c2ccnc(-c3cc(/C=C/c4ccc(OC)cc4)ccn3)c2)cc1.F[P-](F)(F)(F)(F)F.F[P-](F)(F)(F)(F)F.[Ru+2].c1cnc2c(c1)ccc1cccnc12.c1cnc2c(c1)ccc1cccnc12 [Compound 9, [Ru(phen)2((E,E′)-4,4′-Bis[p-methoxystyryl]-2,2′-bipyridine)][PF6]2]
[1]
  PI (480 nm): >66.7
  PI (540 nm): >83.3
[1]; [9]
  IC50: > 100 µM
[1]; [10]
  IC50: 1.5 ± 0.6 µM
[1]; [11]
  IC50: 1.2 ± 0.7 µM
[2]
  λem/nm (Emission maximum): 663 nm
[3]
  Singlet oxygen quantum yield, indirect 450 nm CH3CN: 82%
  Singlet oxygen quantum yield, indirect 450 nm PBS: 9%
  Singlet oxygen quantum yield, indirect 540 nm CH3CN: 79%
  Singlet oxygen quantum yield, indirect 540 nm PBS: 8%
[4]
  IC50: 1.1 ± 0.5 µM
[5]
  Singlet oxygen quantum yield, direct 450 nm CH3CN: 75%
[6]
  ϕem (Luminescence Quantum Yield): 0.019
[7]
  PI (480 nm): >90.9
  PI (540 nm): >111.1
[7]; [12]
  IC50: 0.9 ± 0.4 µM
[7]; [13]
  IC50: > 100 µM
[8]
  τ/ns air (Lifetime): 193 ns
  τ/ns degassed (Lifetime): 669 ns

— US20220409727A1, “Metal Complexes Bearing Bisstyryl-Bipyridine Ligand and Their Use as Photosensitizer Agent in One and Two-Photon Photodynamic Therapy” (Paris Sciences et Lettres, priority 2019, published 2022)
